pEC50, pIC50: −log10 of the molar value. Structures can show the parent of a compound that is named as a salt.

Series [1] addresses T1, late hNav1.5 channel current (Homo sapiens, UniProt Q14524). The conditions noted are these: Oliveira, et al., J. Biol. Chem. 279 (2004); read-out: EC50 for increase of INa,L; cited from earlier work.
The target in series [2] is T1, late hNav1.5 channel current. Description: NaV1.5 (for pimavanserin): late hNav1.5 current, HEK-293, ATX-II activated (CR-CLE). The class given is cell-based. As for the experimental part: (§1) Nonlinear least squares fits were solved with the Solver add-in for Excel 2003 or later (Microsoft, Redmond, WA) and the IC50 was calculated.
0.1 μM ATX-II was omitted from the vehicle control solution used during initial gigaohm seal formation, transition to whole-cell patch clamp configuration and preliminary baseline recording before activation of late Nav1.5 current with 0.1 μM ATX-II. […] Positive Control Article: • Name: Ranolazine dihydrochloride • Source: Tocris • Batch Number: 2A/215231 • Molecular Weight: 509.47 g/mol • Purity: 98.7% • Storage Conditions: Room temperature • Rationale for Selection: Previous results have shown that 100 μM ranolazine dihydrochloride inhibits INa,L by approximately 85% End Blocker • Name: Lidocaine • Source: Sigma-Aldrich • Lot Number: MKBX2132V • Molecular Weight (g/mol): 234.34 • Storage Conditions: Room temperature • Rationale for Selection: Lidocaine is an inhibitor of peak hNav1.5 and late hNav1.5 currents. Each recording will end with application of 2 mM lidocaine to determine the amplitude of endogenous currents. […]
Electrophysiological Procedures: Cells were superfused with vehicle control solution without ATX-II (HB-PS+0.3% DMSO) until after whole-cell configuration was achieved and a stable baseline current was recorded. […]

Another series addresses hCav1.2/β2/α2δ channels (Homo sapiens, UniProt Q13936). Description: CaV1.2 manual patch clamp, CHO cells (CR-CLE). The class given is cell-based.
Text: Stocks were maintained in cryogenic storage. […] Each culture dish was identified by a notation of channel name, passage number, and date.
Rationale for Selection of Ion Channel and Expression Systems: Reduction of ICa,L is associated with action potential shortening in atrial fibrillation (Van Wagoner, et al., Circ Res 85:428-436 (1999)) while augmentation of ICa,L current may produce action potential prolongation (Ahmmed, et al., Circ Res 86:558-570 (2000)) and early after depolarizations (January, et al., Circ Res 62:563-571 (1988)). ICa.L is produced by the combination of calcium channel subunits encoded by CACNA1C (α1-subunit), CACNB2 (β2-subunit) and CACNA2D1 (α2δ-subunit) cDNAs.
• Organism: Cricetulus griseus • Tissue: Ovary; transfected with human CACNA1C • (α1-subunit), CACNB2 (β2-subunit), and • CACNA2D1 (α2δ-subunit) cDNAs • Morphology: Epithelial • Age/Stage: Adult • Source Strain: ATCC, Manassas, VA • Source Substrain: CR-CLE
CHO Cell Culture Procedures: CHO cells were stably co-transfected with human CACNA1C (α1-subunit), CACNB2 (β2-subunit), and CACNA2D1 (α2δ-subunit) cDNAs. Stable transfectants were selected by coexpression of the cDNAs with antibiotic resistance genes for blasticidin, hygromycin, G418, and zeocin. Selection pressure was maintained by including these antibiotics in the culture medium. Cells were cultured in Ham's F12 Medium supplemented with 10% fetal bovine serum, penicillin-streptomycin (100 units/mL), blasticidin (10 μg/mL), zeocin (400 μg/mL), G418 (250 μg/mL) and hygromycin (250 μg/mL). To avoid Ca^2+-induced toxicity, verapamil (3 μmol/L) was added to the cultured cells.
hCav1.2/β2/α2δ-CHO is a tetracycline-inducible cell line. To induce expression, tetracycline at a final concentration of 1 μg/mL was added to media lacking the selection antibiotics. Currents were recorded greater than 16 hours post-induction.
Treatment Groups: All experiments were performed at room temperature. Each cell acted as its own control.
Each concentration was tested in at least three cells (n≥3).
Positive Control Group: The positive control article nifedipine (Sigma-Aldrich) was tested in two cells (n=2) at 0.1 μM. Previous results have shown that nifedipine at 0.1 μM inhibits hCav1.2 current by approximately 90%.
Electrophysiological Procedures: Cells were superfused with vehicle control solution. Micropipette solution for whole cell patch clamp recordings was composed of (mM): Cs-methanesulfonate (MES), 130; TEA-Cl, 20, MgCl2, 1; EGTA, 10; Mg-ATP, 4; Tris-GTP, 0.3, phosphocreatine di-(Tris) salt, 14, creatine phosphokinase, 50 U/mL, and HEPES, 10; pH adjusted to 7.2 with N-methyl-D-glucamine or CsOH. Micropipette solution was prepared in batches, aliquoted, stored frozen, and a fresh aliquot thawed each day. […] Before digitization, current records were low-pass filtered at one-fifth of the sampling frequency.
Experimental Procedures: Onset and steady inhibition was evaluated at a test potential of 0 mV (150 ms duration), repeated at ten-second intervals from a holding potential of −40 mV. Peak current was measured during the step to 0 mV. Peak current was monitored until a new steady state was achieved. hCav1.2 current was monitored until a new steady state was achieved and a steady state was maintained for at least 20 s before applying test article or positive control article formulations. […]
as §1

For another series, the target named is hERG potassium channel (Homo sapiens, UniProt Q12809). Kind of series: in vitro. The following applies: human, pH 7.4. As for the experimental part:
Each cell acted as its own control.
Temperature was measured using a thermistor probe in the recording chamber.

For series [3] the following is noted: as stated by the drug label; cited from earlier work.

T1 sequence (Q14524 whole entry): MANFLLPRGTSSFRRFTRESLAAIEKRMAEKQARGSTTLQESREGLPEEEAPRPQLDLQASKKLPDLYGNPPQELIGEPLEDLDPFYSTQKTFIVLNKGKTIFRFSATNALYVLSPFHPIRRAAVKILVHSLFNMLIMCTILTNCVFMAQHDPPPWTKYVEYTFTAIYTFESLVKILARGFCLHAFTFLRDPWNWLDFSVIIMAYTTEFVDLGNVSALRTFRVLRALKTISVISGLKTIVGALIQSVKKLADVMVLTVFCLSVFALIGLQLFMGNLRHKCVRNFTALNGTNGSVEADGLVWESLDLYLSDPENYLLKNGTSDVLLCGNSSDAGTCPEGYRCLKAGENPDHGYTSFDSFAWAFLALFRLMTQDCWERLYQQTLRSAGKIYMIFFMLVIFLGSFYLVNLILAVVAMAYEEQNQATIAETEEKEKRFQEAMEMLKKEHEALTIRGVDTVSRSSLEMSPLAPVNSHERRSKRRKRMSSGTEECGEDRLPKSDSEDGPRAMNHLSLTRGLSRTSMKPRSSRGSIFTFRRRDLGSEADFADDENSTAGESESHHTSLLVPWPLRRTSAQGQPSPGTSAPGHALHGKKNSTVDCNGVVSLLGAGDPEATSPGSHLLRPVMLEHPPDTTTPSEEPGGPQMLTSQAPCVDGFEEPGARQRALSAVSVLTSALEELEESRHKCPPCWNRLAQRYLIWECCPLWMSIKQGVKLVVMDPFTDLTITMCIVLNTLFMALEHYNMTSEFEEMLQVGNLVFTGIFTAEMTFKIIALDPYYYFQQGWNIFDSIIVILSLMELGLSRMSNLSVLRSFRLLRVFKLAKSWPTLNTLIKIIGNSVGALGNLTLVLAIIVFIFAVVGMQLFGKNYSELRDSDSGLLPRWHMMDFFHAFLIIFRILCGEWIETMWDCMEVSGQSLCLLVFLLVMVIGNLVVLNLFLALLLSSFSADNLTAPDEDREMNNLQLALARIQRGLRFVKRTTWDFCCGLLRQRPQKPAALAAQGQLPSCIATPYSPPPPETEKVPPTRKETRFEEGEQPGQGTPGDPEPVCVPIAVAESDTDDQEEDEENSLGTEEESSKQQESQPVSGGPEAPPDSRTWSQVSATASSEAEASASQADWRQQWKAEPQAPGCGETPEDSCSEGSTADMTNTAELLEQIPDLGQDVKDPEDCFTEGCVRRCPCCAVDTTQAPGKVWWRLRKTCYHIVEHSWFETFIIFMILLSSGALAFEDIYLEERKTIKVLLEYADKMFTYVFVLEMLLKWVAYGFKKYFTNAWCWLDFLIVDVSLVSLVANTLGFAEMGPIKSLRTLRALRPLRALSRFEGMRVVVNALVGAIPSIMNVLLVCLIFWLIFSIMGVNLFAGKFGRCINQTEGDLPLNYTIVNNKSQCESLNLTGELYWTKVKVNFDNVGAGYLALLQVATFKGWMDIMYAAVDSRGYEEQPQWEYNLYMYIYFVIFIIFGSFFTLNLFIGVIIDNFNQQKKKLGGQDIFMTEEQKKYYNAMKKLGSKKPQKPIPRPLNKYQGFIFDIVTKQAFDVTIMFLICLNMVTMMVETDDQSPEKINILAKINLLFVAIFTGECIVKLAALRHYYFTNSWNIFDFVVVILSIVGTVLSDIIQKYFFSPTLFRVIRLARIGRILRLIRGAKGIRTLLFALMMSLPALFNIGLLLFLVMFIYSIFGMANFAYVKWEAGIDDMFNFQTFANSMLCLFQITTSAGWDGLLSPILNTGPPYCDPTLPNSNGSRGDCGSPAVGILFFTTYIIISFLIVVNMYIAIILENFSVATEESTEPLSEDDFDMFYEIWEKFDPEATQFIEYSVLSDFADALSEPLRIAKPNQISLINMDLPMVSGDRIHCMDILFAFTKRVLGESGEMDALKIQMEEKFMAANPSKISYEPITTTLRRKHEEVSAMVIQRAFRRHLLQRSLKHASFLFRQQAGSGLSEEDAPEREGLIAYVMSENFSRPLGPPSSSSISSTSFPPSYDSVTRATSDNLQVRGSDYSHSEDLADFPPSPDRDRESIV
hERG potassium channel, sequence (Q12809 whole entry): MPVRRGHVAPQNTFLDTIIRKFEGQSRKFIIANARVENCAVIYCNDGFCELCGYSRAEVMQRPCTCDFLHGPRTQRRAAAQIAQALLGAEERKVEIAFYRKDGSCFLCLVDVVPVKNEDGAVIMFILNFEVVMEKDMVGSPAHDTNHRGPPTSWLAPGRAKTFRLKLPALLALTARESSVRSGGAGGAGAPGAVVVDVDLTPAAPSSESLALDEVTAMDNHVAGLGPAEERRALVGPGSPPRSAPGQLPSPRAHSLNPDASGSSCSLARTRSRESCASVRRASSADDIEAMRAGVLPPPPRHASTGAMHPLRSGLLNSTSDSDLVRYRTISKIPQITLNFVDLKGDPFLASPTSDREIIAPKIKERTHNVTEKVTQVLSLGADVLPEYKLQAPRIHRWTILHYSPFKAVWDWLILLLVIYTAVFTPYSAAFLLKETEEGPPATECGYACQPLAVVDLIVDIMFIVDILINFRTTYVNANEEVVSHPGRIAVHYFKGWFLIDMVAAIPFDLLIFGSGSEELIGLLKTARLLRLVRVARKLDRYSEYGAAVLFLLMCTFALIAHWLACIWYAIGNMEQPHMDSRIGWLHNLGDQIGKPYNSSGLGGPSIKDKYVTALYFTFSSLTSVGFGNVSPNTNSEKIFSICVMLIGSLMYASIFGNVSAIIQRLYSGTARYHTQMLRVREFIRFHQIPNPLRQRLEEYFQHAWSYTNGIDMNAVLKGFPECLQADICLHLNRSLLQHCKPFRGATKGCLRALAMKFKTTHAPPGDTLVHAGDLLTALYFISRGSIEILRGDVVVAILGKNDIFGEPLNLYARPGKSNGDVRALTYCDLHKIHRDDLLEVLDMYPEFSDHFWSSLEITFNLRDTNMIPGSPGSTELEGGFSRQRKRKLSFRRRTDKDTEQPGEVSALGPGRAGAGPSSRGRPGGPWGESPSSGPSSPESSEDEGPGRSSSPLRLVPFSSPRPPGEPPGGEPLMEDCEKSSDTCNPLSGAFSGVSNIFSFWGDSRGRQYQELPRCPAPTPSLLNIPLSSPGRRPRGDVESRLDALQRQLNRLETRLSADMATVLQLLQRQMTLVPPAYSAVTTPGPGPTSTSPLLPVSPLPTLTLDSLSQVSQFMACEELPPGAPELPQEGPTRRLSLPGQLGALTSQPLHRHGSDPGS

Regarding “ATX-II: "Late hNav1.5 Current Agonist"; "ATX-II increases INa,L"; Molecular Weight 4935; Source: Alomone Labs”, the pEC50 (usually −log10 of the EC50, conventionally taken in molar units) in series [1] was roughly 8.40. On to `COc1ccccc1OCC(O)CN1CCN(CC(=O)Nc2c(C)cccc2C)CC1` (stereo not shown) [ranolazine dihydrochloride, Ranolazine dihydrochloride], for which, in series [2] (HEK293, 100 μM, positive control, previous results, read-out: inhibition of INa,L), the inhibition (usually the change of the read-out against control, counted positive when it falls) at 100 µM is roughly 85%. As to `COC(=O)C1=C(C)NC(C)=C(C(=O)OC)C1c1ccccc1[N+](=O)[O-]` [nifedipine, reference compound], on hCav1.2/β2/α2δ channels (0.1 μM, positive control, previous results, read-out: inhibition of hCav1.2 current), the inhibition at 0.1 µM was roughly 90%.

With `COc1cc(N)c(Cl)cc1C(=O)NC1CCN(CCCOc2ccc(F)cc2)CC1OC` (stereo not shown) [cisapride, reference compound], the inhibition at 0.09 µM at hERG potassium channel is roughly 80%.

Take `CC(C)COc1ccc(CNC(=O)N(Cc2ccc(F)cc2)C2CCN(C)CC2)cc1` [Pimavanserin]: the pIC50 (commonly the negative decadic logarithm of the IC50, by convention in mol/L) on hCav1.2/β2/α2δ channels (manual patch clamp, room temperature, read-out: CaV 1.2 IC50) was 5.92; in series [2] (read-out: NaV 1.5 IC50), 5.92. Besides, in series [3], the “effect on QT interval” value was “prolongs the QT interval”.

Source of the values: patent US12139477B2, “Compounds, salts thereof and methods for treatment of diseases” (ACADIA PHARMACEUTICALS INC., priority 2017, dated 2024).
